# The source made the active and inactive calls.
# Experiments:
# [1] = inhibitors of clade B AD8 Env fusion, dose response, cell-based, cherry-pick (AID 652062); format: functional;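 note: luciferase signal from cell-cell fusion driven by HIV-1 clade B AD8 Env; potency is for inhibitors of fusion seen as a drop in luminescence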
# [2] = inhibitors of HIV Env-driven cell fusion, dose response, cherry-pick (AID 652057); format: functional, cell-based
# [3] = ZM109 Env clade C HIV-1 fusion inhibitors, dose response, HeLa effector, CEM target cells, luciferase, cherry-pick (AID 652058); format: functional, cell-based
# [4] = off-target signal loss in HeLa-CEM21 co-culture – HeLa F-luc CTL cells, cherry-picked, counter-screen for HIV-1 Env fusion inhibitor project, dose response (AID 652040); format: functional, cell-based;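 note: potency for signal decrease marking cytotoxic or nonspecific inhibition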
# [5] = biological target: Glucose-6-phosphate 1-dehydrogenase (Homo sapiens, UniProt P11413); test: human G6PD enzyme inhibitors, dose response, selectivity assay for P. falciparum G6PD inhibitor project, biochemical, fluorescence (AID 504792); format: functional
# Chain of Glucose-6-phosphate 1-dehydrogenase (P11413 whole entry): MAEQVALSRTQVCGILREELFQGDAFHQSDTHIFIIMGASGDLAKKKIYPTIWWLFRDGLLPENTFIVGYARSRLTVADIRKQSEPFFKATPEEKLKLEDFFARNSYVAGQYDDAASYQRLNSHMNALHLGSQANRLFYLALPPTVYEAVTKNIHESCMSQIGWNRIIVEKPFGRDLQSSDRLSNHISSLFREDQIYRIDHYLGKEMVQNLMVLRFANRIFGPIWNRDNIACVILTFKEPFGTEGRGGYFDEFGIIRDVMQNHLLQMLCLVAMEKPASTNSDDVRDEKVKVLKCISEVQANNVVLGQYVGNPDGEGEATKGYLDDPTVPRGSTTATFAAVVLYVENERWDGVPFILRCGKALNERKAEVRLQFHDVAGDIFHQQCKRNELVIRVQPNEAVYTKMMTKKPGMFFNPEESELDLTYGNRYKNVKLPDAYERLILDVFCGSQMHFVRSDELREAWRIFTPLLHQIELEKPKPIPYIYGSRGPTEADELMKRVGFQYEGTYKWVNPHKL
# [6] = biological target: T1, Ubiquitin-conjugating enzyme E2 N (Homo sapiens, UniProt P61088); format: functional;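 note: Dose-response confirmation in a TR-FRET assay detecting UBC13-driven polyubiquitin chain formation, inhibition measured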
# T1 sequence (P61088 whole entry): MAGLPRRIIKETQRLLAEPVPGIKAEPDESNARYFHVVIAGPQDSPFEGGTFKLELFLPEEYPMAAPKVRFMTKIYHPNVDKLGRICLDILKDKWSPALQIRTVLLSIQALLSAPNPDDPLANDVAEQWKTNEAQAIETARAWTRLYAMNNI
# [7] = CEM21 lymphoblast cell cytotoxicity, dose response, cytotoxicity control for viral fusion inhibitor project, CellTiter-Glo luminescence, cherry-picked (AID 652042); format: functional, cell-based;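 note: potency for signal decrease meaning cytotoxicity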
# [8] = biological target: T2, Endoribonuclease toxin MazF (Escherichia coli K-12, UniProt P0AE70); test: MazF toxin RNase activators, dose response, biochemical, fluorescence, single-stranded RNA substrate, uHTS hits (AID 588481); format: functional
# T2 sequence (P0AE70 whole entry): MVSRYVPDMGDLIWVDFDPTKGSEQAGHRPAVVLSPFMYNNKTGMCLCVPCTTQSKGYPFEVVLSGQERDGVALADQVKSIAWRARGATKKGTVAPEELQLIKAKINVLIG
# [9] = biological target: T2, Endoribonuclease toxin MazF; test: fluorescent RNA oligo signal without MazF, dose response, counter-screen for MazEF activator project, biochemical, fluorescence, single-stranded RNase substrate (AID 588502); format: functional
# [10] = test system: Streptococcus sp. 'group A'; test: growth inhibition of control SK(-) GAS strain, dose response, counter-screen for streptokinase expression inhibitor project, luminescence, kanamycin, BacTiterGlo, confirmation (AID 1900); format: functional, organism-based
# Streptococcus = test: Group A Streptococcus viability loss, dose response, counter-screen for streptokinase expression inhibitor project, luminescence, BacTiterGlo (AID 1915); format: functional, organism-based;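 note: potency for reduction of bacterial viability or growth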
# [11] = biological target: T3, Low molecular weight phosphotyrosine protein phosphatase (Homo sapiens, UniProt P24666); format: functional; settings: read-out: IC50_Mean;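 note: Dose-response confirmation assay measuring inhibition of LMPTP enzyme activity by fluorescence intensity read-out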
# T3 sequence (P24666 whole entry): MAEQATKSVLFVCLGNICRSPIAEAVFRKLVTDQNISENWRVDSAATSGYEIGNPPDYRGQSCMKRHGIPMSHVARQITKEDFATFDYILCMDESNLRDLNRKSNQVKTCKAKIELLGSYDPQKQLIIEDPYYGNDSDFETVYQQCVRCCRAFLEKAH
# [12] = biological target: T4, RNA-binding protein pos-1 (Caenorhabditis elegans, UniProt G5EF15); test: inhibitors of POS-1/mex-3 RNA binding, dose response, biochemical, fluorescence polarization (AID 1964);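 note: purified POS-1 fused to maltose binding protein made in E. coli; potency of compounds blocking POS-1 binding to fluorescent RNA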
# T4 sequence (G5EF15 whole entry): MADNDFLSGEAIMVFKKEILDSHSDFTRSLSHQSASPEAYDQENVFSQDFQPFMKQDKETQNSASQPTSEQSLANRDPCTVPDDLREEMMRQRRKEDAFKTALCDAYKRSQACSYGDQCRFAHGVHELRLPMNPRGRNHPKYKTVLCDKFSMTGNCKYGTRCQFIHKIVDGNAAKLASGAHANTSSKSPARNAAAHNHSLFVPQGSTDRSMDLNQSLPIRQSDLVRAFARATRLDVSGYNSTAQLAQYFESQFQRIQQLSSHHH
# [13] = biological target: Induced myeloid leukemia cell differentiation protein Mcl-1 (Homo sapiens, UniProt Q07820); format: functional
# Chain of Induced myeloid leukemia cell differentiation protein Mcl-1 (Q07820 whole entry): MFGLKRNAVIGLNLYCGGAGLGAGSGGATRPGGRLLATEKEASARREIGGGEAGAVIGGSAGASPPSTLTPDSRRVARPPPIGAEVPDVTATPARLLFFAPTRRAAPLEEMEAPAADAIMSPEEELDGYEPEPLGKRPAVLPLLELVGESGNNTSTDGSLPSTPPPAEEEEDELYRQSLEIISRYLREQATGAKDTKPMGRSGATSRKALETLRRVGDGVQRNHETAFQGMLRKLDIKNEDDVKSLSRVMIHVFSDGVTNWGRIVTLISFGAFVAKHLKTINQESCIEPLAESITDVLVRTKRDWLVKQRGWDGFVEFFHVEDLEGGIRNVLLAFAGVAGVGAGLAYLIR
# [14] = biological target: T5, Zinc finger protein mex-5 (Caenorhabditis elegans, UniProt Q9XUB2); test: MEX-5/TCR-2 RNA interaction inhibitors, dose response, biochemical, C. elegans, fluorescence polarization (AID 1960)
# T5 sequence (Q9XUB2 whole entry): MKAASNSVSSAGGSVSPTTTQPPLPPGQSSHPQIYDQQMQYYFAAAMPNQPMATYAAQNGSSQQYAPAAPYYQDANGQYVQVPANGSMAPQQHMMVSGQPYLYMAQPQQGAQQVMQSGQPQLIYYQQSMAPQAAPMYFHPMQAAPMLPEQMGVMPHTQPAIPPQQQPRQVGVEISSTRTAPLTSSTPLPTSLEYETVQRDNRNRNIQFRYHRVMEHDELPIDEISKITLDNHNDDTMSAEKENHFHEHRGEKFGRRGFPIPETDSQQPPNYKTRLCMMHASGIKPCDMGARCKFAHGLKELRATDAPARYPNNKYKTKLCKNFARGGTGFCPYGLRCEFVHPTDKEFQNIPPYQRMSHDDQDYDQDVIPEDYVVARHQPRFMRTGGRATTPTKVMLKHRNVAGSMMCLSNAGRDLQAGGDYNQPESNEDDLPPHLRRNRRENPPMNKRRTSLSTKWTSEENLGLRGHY
# [15] = biological target: T6, Apoptotic protease-activating factor 1 (Homo sapiens, UniProt O14727); format: functional
# T6 sequence (O14727 whole entry): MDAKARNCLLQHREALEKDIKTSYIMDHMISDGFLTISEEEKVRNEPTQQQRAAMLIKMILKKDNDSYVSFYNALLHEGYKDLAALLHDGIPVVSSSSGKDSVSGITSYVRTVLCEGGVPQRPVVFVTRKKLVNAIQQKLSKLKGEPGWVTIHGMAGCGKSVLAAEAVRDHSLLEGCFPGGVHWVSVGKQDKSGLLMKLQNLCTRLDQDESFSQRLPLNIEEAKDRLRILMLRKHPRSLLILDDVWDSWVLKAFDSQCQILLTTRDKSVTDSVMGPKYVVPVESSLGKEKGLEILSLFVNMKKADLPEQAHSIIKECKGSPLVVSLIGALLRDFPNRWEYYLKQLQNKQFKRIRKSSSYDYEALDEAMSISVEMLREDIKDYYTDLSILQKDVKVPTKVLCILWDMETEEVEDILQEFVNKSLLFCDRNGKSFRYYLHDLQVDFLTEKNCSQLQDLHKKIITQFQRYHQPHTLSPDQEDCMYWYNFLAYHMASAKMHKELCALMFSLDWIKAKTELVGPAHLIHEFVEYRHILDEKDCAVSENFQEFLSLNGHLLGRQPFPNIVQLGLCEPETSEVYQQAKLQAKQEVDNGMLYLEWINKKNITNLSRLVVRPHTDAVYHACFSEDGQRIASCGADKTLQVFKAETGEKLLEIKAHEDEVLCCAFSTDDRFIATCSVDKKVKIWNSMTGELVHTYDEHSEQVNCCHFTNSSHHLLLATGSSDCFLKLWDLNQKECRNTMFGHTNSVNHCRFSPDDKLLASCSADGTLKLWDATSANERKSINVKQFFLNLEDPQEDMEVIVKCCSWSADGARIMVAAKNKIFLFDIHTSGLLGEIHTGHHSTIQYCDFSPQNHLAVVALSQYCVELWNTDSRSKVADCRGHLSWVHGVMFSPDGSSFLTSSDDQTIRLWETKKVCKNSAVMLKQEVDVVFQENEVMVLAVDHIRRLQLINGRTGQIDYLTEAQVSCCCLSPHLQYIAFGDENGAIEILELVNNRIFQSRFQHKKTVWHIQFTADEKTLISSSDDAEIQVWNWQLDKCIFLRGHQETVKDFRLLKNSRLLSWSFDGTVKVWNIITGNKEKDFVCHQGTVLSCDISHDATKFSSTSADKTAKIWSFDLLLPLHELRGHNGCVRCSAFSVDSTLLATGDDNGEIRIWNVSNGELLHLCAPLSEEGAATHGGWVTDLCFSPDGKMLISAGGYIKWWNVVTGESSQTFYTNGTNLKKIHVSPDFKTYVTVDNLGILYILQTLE
# Genome polyprotein = Genome polyprotein (dengue virus type 2, UniProt P29990); test: Dengue-2 NS5 methyltransferase inhibitors, primary screen, biochemical, confirmation dose response (AID 588689); format: functional
# Chain of Genome polyprotein (P29990 2492-3391 limits assumed): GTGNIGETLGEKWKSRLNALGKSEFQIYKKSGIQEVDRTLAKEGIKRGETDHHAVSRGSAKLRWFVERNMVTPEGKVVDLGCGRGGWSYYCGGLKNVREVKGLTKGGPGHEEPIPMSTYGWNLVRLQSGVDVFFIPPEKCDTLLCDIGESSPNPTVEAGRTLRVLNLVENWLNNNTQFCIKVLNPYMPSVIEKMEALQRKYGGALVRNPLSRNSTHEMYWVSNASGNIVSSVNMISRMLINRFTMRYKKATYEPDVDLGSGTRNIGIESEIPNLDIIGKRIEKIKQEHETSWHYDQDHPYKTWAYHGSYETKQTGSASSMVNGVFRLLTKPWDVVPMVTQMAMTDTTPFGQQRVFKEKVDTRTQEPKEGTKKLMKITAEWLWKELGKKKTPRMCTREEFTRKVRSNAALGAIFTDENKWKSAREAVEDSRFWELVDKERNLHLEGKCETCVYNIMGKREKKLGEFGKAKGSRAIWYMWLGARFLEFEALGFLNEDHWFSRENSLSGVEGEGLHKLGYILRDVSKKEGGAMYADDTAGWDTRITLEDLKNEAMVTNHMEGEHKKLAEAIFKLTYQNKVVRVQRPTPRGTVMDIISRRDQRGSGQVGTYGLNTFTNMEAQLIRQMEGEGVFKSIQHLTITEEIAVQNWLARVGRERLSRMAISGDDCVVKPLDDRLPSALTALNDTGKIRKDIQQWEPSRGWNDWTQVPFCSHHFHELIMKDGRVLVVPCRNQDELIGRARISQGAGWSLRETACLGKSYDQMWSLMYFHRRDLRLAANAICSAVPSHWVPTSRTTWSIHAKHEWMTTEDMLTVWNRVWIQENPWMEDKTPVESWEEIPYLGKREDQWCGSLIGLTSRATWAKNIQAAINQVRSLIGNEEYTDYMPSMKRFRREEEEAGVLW
# [16] = biological target: Dual specificity tyrosine-phosphorylation-regulated kinase 1A (Rattus norvegicus, UniProt Q63470); format: biochemical, Homo sapiens
# INS1 = test: beta cell apoptosis inhibitors, cytokine rescue, dose response, luminescence, retest (AID 449756); format: functional, cell-based; settings: Rattus norvegicus;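 note: cell death triggered by IL-1 beta plus TNF-alpha plus IFN-gamma mixture; protective hits raise ATP signal compared with cytokine alone wells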
# Nonstructural protein 1 = Nonstructural protein 1 (Influenza A virus, UniProt Q194T2); format: functional, Influenza A virus (A/California/07/2009(H1N1))
# Chain of Nonstructural protein 1 (Q194T2 whole entry): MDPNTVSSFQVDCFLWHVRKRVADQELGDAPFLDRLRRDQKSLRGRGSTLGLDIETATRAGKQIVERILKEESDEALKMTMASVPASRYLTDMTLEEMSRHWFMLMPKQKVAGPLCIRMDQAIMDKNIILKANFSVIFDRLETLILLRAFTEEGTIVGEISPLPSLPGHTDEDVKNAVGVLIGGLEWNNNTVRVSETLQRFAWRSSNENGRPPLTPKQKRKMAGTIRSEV
# [17] = Luminescence Cell-Based Dose Retest to Confirm Inhibitors of Cancer Stem Cells. [Related pubchem assays (depositor defined):AID2717, AID2721]; format: functional; settings: Homo sapiens
# [18] = cytotoxicity toward DRD oncogenic fibroblasts, dose response, cell-based, non-viral oncogenic, luminescence (AID 1934); format: functional; settings: Homo sapiens
# [19] = biological target: T7, Microphthalmia-associated transcription factor (Homo sapiens, UniProt O75030); test: TRPM1 promoter luciferase signal decrease, dose response, MITF inhibitor project, cell-based, SK-MEL-5, cherry-picked, set 3 (AID 493073); format: functional
# T7 sequence (O75030 whole entry): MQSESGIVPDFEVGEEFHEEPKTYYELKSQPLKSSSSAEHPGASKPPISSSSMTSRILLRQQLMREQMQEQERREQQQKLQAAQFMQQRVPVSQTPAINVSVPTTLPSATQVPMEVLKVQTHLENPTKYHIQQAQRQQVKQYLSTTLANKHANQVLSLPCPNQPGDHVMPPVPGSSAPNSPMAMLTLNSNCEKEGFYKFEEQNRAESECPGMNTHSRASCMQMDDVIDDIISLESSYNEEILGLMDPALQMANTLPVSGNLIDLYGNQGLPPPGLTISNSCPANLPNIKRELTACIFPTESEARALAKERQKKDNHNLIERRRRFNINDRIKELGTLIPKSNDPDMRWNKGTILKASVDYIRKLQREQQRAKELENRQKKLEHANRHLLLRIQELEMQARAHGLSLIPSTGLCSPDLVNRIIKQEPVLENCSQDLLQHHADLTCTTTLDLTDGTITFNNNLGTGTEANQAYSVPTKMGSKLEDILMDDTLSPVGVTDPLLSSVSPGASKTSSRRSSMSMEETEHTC
# BJ [20] = test: cytotoxicity toward BJ-TERT fibroblasts, dose response, cell-based, RAS-independent, luminescence (AID 1933); format: functional; settings: Homo sapiens
# [21] = cytotoxicity in MIN6 insulinoma cells, dose response, cytotoxicity control, cell-based, mouse insulinoma (AID 2122); format: functional;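 note: confirmatory high-throughput counterscreen run to flag cytotoxic compounds; mouse MIN-6 beta cells carrying an insulin promoter eGFP reporter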
# [22] = insulin promoter down-regulators in MIN6 cells, imaging, high-content screening, mouse beta cells (AID 1628); format: functional
# BJ [23] = test: cells; format: functional, cell-based; settings: Homo sapiens
# BJ [24] = test: cytotoxicity toward BJ-TERT-LT-ST fibroblasts, dose response, cell-based, RAS-independent, luminescence (AID 1935); format: functional; settings: Homo sapiens;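 note: BJ fibroblasts immortalized with TERT plus LT and ST oncogenes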
smiles,measurement,setting,value
CCC(C)N(CCNC(=O)c1ccc2c(c1)NC(=O)c1ccccc1S2)C1CCCCC1 (stereo not given),AC50,[1],3.82 µM (active)
same,AC50,[2],0.758 µM (active)
same,AC50,[3],0.923 µM (active)
same,AC50,[4],1.09 µM (active)
same,IC50,[5],> 80 µM (inactive)
same,IC50,[6],> 20 µM (inactive)
same,AC50,[7],45.1 µM (active)
COC(=O)C1=C(C)N(C)C(C)=C(C(=O)OC)C1c1ccccn1,EC50,[8],> 99 µM (inactive)
same,EC50,[9],56.4 µM (inactive)
Cc1ccc(S(=O)(=O)SCCCSS(=O)(=O)c2ccc(C)cc2)cc1,IC50,[5],26.7 µM (inactive)
CCn1cc(C(=O)O)c(=O)c2cc(F)c(N3CCN(S(=O)(=O)c4ccc5c(c4)OCCO5)CC3)cc21,EC50,[10],2.84 µM (active)
same,EC50,Streptococcus,5.81 µM (active)
same,IC50,[11],5.48 µM (active)
O=C1C(=Cc2cccn2-c2ccccc2)C(=O)c2ccccc21,EC50,[8],> 99 µM (inactive)
same,EC50,[12],68.6 µM (active)
same,EC50,[9],60.7 µM (inactive)
same,IC50,[13],4.55 µM (active)
same,EC50,[14],175 µM (active)
CCOC(=O)c1cnn(-c2c(Cc3ccccc3)c(C)nc3c(-c4ccccc4)c(C)nn23)c1N,IC50,[15],4 µM (active)
COC(=O)CCC(=O)OC1(C)C(=O)C2=CN(c3ccccc3)C(c3ccc(OC)cc3)=CC2=C(Br)C1=O (stereo not given),IC50,[5],42.1 µM (inactive)
same,IC50,Genome polyprotein,> 100 µM (active)
O=C1/C(=C/c2ccc3c(c2)OCO3)Oc2cc(OCC(=O)N3CCC[C@H]3C(=O)O)ccc21,AC50,[16],4.59 µM (active)
O=C(CSc1nnc(-c2ccco2)o1)c1ccc[nH]1,IC50,[11],38.1 µM (inactive)
CC(C)n1cnc2c(NCc3ccccc3)cc(N[C@H](C)CO)cc21,AC50,INS1,1.52 µM (active)
same,IC50,Nonstructural protein 1,61.9 µM (active)
same,AC50,[17],6.67 µM (active)
same,IC50,[15],1.22 µM (active)
O=C1N=C(N2CCc3ccccc3C2)S/C1=C\c1ccc(O)cc1,AC50,[16],0.737 µM (active)
Cc1cc(-n2c(C)cc(C(=O)CCl)c2C)no1,EC50,[18],10.9 µM (inconclusive)
same,AC50,[19],5.5 µM (active)
same,EC50,BJ [20],4.75 µM (inconclusive)
same,IC50,[21],1.66 µM (active)
same,IC50,[22],3.25 µM (active)
same,EC50,BJ [23],2.76 µM (active)
same,EC50,BJ [24],1.91 µM (inconclusive)
